{"source": "patent US9657088B2", "about": "“Anti-HSV antibody” (priority 2009, dated 2017)", "key": {"HSV-1 F [1]": {"system": "HSV-1 F", "test": "Passive immunization of NOD/SCID mice 24 h before intravaginal HSV-1 challenge", "type": "in vivo", "description": "Mice were infected intravaginally with 1×10^6 TCID50/20 μl of the neurovirulent HSV-1 strain F. Infected mice with symptoms of weight loss, vulvitis/vaginitis or neurological diseases were killed, and their organs examined for infectious virus by titration on Vero cell monolayers as described previously. Non-infected mice were killed at day 30. Animals per group n=7.\nAnimals per group n=7 for PBS, n=9 all other groups.\n(§1) Anesthetized female nonobese diabetic/severe combined immunodeficient (NOD-SCID) mice (NOD.CB17-Prkdc^scid/J, Charles River Laboratories, Research Models and Services, Sulzfeld, Germany), 6-8 weeks of age, were challenged intravaginally with 20 μl inoculum of 1×10^6 TCID50 HSV-1 F per mouse. Skin glue (Epiglu, Meyer-Haake Medical Innovations, Wehrheim, Germany) was applied onto the vulva to prevent discharge of the virus inoculum. […] Mice were examined daily after viral inoculation for loss of weight, vulvitis/vaginitis (redness, mucopurulent discharge and signs of inflammation) and neurological disease. Mice displaying any of theses symptoms were sacrificed immediately. […] Mice were assessed for infection by determination of virus titers from vaginal irrigations obtained on days 1, 2, 4, 6 and 8 after infection and at the time of death using the endpoint dilution assay on Vero cells. Viral loads in organs (spleen, adrenal gland, lung heart, liver, kidney, spinal cord, and brain) of sacrificed mice were determined after homogenization of organs by titration on Vero cell monolayers as described elsewhere (41). Each test and control group contained 9-10 animals with detectable HSV-1 infection.\nNatural killer (NK) cells accumulating at the site of HSV-2 infection in humans (28) are the early source of interferon-γ (45), which plays an essential role for the control of HSV infection (2, 45, 62)."}, "HSV-1 F [2]": {"system": "HSV-1 F", "test": "Post-exposure treatment of NOD/SCID mice with established HSV-1 infection", "type": "in vivo", "description": "Infected animals per group n=7.\nVaginal virus titers of antibody or control treated mice were determined from vaginal irrigations cultured on Vero cell monolayers. Error bars indicate standard deviation.\nas §1"}}, "note": "“Also recorded” adds a separate entry of the source.", "data": [{"substance": "mAb 2c: murine monoclonal IgG2a antibody specific for glycoprotein B of HSV1 and HSV2; VH SEQ ID NO: 9, VL SEQ ID NO: 10", "values": [{"measurement": "Median survival time prolonged compared to PBS control", "setting": "HSV-1 F [1]; 5 mg/kg i.v., 24 h prior to challenge", "value": 2.6, "unit": "fold"}, {"measurement": "protection against lethal encephalitis", "setting": "HSV-1 F [1]; 15 mg/kg i.v., 24 h prior to infection", "value": "fully protected against lethal encephalitis; also recorded: full protection"}, {"measurement": "Viral titres in organs of protected mice", "setting": "HSV-1 F [1]; 15 mg/kg, detection limit", "value": "< 1×10^2 TCID50"}, {"measurement": "protection against lethal infection", "setting": "HSV-1 F [1]; low antibody doses (2.5 mg/kg, 5 mg/kg)", "value": "not fully protected against lethal infection"}, {"measurement": "survival", "setting": "HSV-1 F [1]; single i.v. dose of 5 mg/kg, 24 h prior to infection", "value": "prolongs the survival"}, {"measurement": "protection from lethal outcome of established infection", "setting": "HSV-1 F [2]; 15 mg/kg i.v. at 24 h, 40 h and 56 h post infection", "value": "completely protected from the lethal outcome of infection; also recorded: completely prevented lethal outcome of infection"}, {"measurement": "virions in sensory neurons and respective organs", "setting": "HSV-1 F [2]; one month after infection", "value": "no virions were detected"}]}]}
